Experimental findings from patent US7622475B2, “EP2 agonists” (Pfizer Inc, priority 2006, dated 2009) are described below.

Test [1] deals with ocular hypertensive non-human primates. The test is described as follows: IOP change after topical application in ocular hypertensive non-human primates. The note with it: for change in vivo at 0.1 %: Primates, read-out: ΔΔEmax (%); for ΔΔEmax (mm Hg): dosed hypertensive eye vs vehicle. Type of test: in vivo. How it is done:
Tables 2 and 3 describe the intraocular pressure (IOP) changes that were seen following topical application of EP2 agonists in ocular hypertensive non-human primates. Typically, compounds in suitable formulations were dosed topically and IOP was measured using tonometry. Changes in IOP between vehicle treatment followed by treatment with EP2 compounds were assessed over time in the dosed hypertensive eye. ΔΔ Emax reflects the difference in IOP from EP2 compound-treated eye over that seen for vehicle-treated eye at the timepoint wherein maximum IOP reduction for compound was seen. The percent ΔΔ Emax was the percentage change in IOP reduction conferred by compound over that for vehicle (set at 100%). Tmax represents the time point at which maximum IOP reduction of compound was observed. […] NS represents not significant. Table 2 compares acids of EP2 compound while Table 3 compares IOP response seen with esters of certain acids. Esters provide better corneal penetration and improved drug exposure in the anterior chamber compared to acids and are therefore dosed at ⅕th the dose for acids […].

Test [2] has as its target EP2 (Homo sapiens, UniProt P43116). In words: EP2 cAMP EC50 (Table 1). Format: cell-based.
Test [3] addresses T1, prostaglandin E2 type 2 (EP2) receptors (Homo sapiens, UniProt P43116).
T1 construct: expressed in transfected cells
The test is described as follows: Assay for binding to prostaglandin E2 receptors (3H-prostaglandin E2 displacement, membranes of transfected cells). The note with it: displacement of 3H-prostaglandin E2. How it is done:
All operations are performed at 4° C. […] These are lysed by sonification with a Branson Sonifier (Model #250, Branson Ultrasonics Corporation, Danbury, Conn.) in 2 fifteen second bursts. Unlysed cells and debris are removed by centrifugation at 100×g for 10 min. Membranes are then harvested by centrifugation at 45,000×g for 30 minutes. Pelleted membranes are resuspended to 3-10 mg protein per ml, protein concentration being determined according to the method of Bradford [Bradford, M., Anal. Biochem., 72, 248 (1976)]. Resuspended membranes are then stored frozen at −80° C. until use.
Frozen membranes as prepared are thawed and diluted to 1 mg protein per ml in Buffer A. One volume of membrane preparation is combined with 0.05 volume test compound or buffer and one volume of 3 nM 3H-prostaglandin E2 (#TRK 431, Amersham, Arlington Heights, Ill.) in Buffer A. The mixture (205 μL total volume) is incubated for 1 hour at 25° C. The membranes are then recovered by filtration through type GF/C glass fiber filters (#1 205401, Wallac, Gaithersburg, Md.) using a Tomtec harvester (Model Mach II/96, Tomtec, Orange, Conn.). The membranes with bound 3H-prostaglandin E2 are trapped by the filter, the buffer and unbound 3H-prostaglandin E2 pass through the filter into waste. Each sample is then washed 3 times with 3 ml of [50 mM Tris-HCl (pH 7.4), 10 mM MgCl2, 1 mM EDTA]. The filters are then dried by heating in a microwave oven. To determine the amount of 3H-prostaglandin bound to the membranes, the dried filters are placed into plastic bags with scintillation fluid and counted in a LKB 1205 Betaplate reader (Wallac, Gaithersburg, Md.). IC50s are determined from the concentration of test compound required to displace 50% of the specifically bound 3H-prostaglandin E2.
For orientation: In a radioligand displacement assay an active substance lowers the binding of a labelled ligand.

The mark [4] stands for this setting: topical, acid EP2 agonists, Conc 0.1 %, topical, vs vehicle (set at 100%).
Setting [5] is: acid EP2 agonists, Conc 0.1 %, topical.
Where [6] appears, read: acid EP2 agonists, Conc 0.1 %, time point of maximum IOP reduction.
[7] abbreviates: acid EP2 agonists, Conc 0.1 %, topical, vs vehicle (set at 100%).
Setting [8] is: isopropylesters, OHT primates, time point of maximum IOP reduction.

T1 sequence (P43116 whole entry): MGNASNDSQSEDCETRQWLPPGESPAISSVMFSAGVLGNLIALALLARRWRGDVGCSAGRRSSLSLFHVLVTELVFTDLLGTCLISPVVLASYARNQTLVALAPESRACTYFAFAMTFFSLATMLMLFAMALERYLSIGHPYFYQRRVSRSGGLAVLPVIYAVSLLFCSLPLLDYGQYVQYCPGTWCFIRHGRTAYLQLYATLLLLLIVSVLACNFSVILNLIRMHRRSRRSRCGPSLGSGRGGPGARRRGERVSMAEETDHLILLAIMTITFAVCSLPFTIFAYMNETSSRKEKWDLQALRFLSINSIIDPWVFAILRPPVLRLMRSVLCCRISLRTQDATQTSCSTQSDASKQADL
Sequence of EP2 (P43116 whole entry): as above

Take `CS(=O)(=O)N(CCCOc1cc(Cl)cc(Cl)c1)CCCc1ccc(C(=O)O)s1`: the change in vivo at 0.1 % in test [1] (setting [4]) is -11%. Besides, the “ΔΔEmax (mm Hg)” value in test [1] (setting [5]) is −4.4 mm Hg. For the same compound, the “Tmax” value in test [1] (setting [6]) turned out to be 2 h.
The matching figures for `O=C(O)CCCCCCC1C(=O)CC[C@@H]1CCc1cccc(C(F)(F)F)c1` (stereo partly shown): -9%, −3.7 mm Hg and 6 h.
Regarding `O=C(O)CCc1cccc(CN(Cc2ccc(-c3cccnc3)cc2)S(=O)(=O)c2cccnc2)c1`, in test [1] (setting [5]), the “ΔΔEmax (mm Hg)” value is reported as “ns”. Besides, the “ΔΔEmax (%)” value in test [1] (setting [7]) was “ns”.
As for `Cn1cnc(S(=O)(=O)N(Cc2ccc(-c3nccs3)cc2)Cc2cccc(OCC(=O)O)c2)c1`, the “ΔΔEmax (mm Hg)” value in test [1] (setting [5]) is recorded as “ns”. Further, the “ΔΔEmax (%)” value in test [1] (setting [7]) is “ns”.
Take `O=C(O)CCc1cccc(CN(Cc2ccc(-c3cncnc3)cc2)S(=O)(=O)c2ccccn2)c1`: the “ΔΔEmax (mm Hg)” value in test [1] (setting [5]) is reported as “ns”. Moreover, in test [1] (setting [7]), the “ΔΔEmax (%)” value is reported as “ns”.
Regarding `CS(=O)(=O)N(CCCc1nc(C(=O)O)cs1)CCOc1cc(Cl)cc(Cl)c1`, the change in vivo at 0.1 % in test [1] (setting [4]) is -8%. Further, the “ΔΔEmax (mm Hg)” value in test [1] (setting [5]) is −4.3 mm Hg. Besides, the “Tmax” value in test [1] (setting [6]) is reported as 2 h.
Consider `O=C(O)CCc1cccc(CN(Cc2ccc(-c3cccnc3)cc2)S(=O)(=O)c2ccccc2)c1`, for which the change in vivo at 0.1 % in test [1] (setting [4]) is -10%. Moreover, the “ΔΔEmax (mm Hg)” value in test [1] (setting [5]) was −3.0 mm Hg. In test [1] (setting [6]), the “Tmax” value is 4 h.
As to `O=C(O)COc1cccc(CN(Cc2ccc(-c3ncccn3)cc2)S(=O)(=O)c2ccccn2)c1`, the “ΔΔEmax (mm Hg)” value in test [1] (setting [5]) is on record as “ns”. Moreover, the “ΔΔEmax (%)” value in test [1] (setting [7]) is “ns”.
Consider `CC(C)OC(=O)c1csc(CCCN(CCOc2cc(Cl)cc(Cl)c2)S(C)(=O)=O)c1`, for which, in test [1] (isopropylesters, OHT primates, both eyes), the “ΔΔEmax (mmHg)” value was −8 (both eyes) mmHg. In test [1] (setting [8]), the “Tmax” value is 4 to 6 h.
As usually defined, the EC50 is the midpoint of the concentration-response curve. A lower EC50 goes with a more potent agent. A word on the IC50: it is the point on the concentration scale where inhibition reaches its midpoint. A high value points to weaker potency in that assay. Take `CC(C)OC(=O)c1ccc(CCCN(CCCOc2cc(Cl)cc(Cl)c2)S(C)(=O)=O)s1` [Example 2]: in test [2], the EC50 is 8.15 nM. In addition, the 50% inhibitory concentration (IC50) in test [3] came out at 3.22 nM.
In test [2], `COC(=O)COc1cccc(CN(Cc2ccc(-n3cccn3)cc2)S(=O)(=O)c2cccnc2)c1` [Example 3] showed an EC50 of 1.48 nM. The compound also displayed an IC50 in test [3] of 10 nM.
In test [2], `CC(C)(C)OC(=O)CCc1cccc(CN(Cc2ccc(-c3cccnc3)cc2)S(=O)(=O)c2ccccc2)c1` [Example 4] returned an EC50 of 5.35 nM. In test [3], the half-inhibitory concentration (IC50) is under 12.4 nM.
In test [2], `CC(C)OC(=O)c1ccc(CCCN(CCOc2cc(Cl)cc(Cl)c2)S(C)(=O)=O)s1` [Example 5] had a half-maximal effective concentration (EC50) of 4.8 nM. Besides, the IC50 in test [3] came out at 4.42 nM.
Turning to `CC(C)OC(=O)CCCCCCN(CCCc1cc(Cl)cc(Cl)c1)S(C)(=O)=O` [Example 6], it took 7 nM to reach a half-maximal effect in test [2] (EC50). Further, the IC50 in test [3] was found to be 6.6 nM.
Regarding `CC(C)OC(=O)c1csc(CCCN(CCOc2cc(Cl)cc(Cl)c2)S(C)(=O)=O)n1` [Example 7], in test [2], the EC50 was determined as 18 nM. The compound further registered an IC50 in test [3] of 5.3 nM.
`CC(C)OC(=O)CCc1cccc(CN(Cc2ccc(-c3cccnc3)cc2)S(=O)(=O)c2ccccc2)c1` [Example 8]: in test [2], the EC50 was 5.35 nM. In addition, the half-inhibitory concentration (IC50) in test [3] was under 12.4 nM.
For `CCOC(=O)COc1cccc(CN(Cc2ccc(-n3cccn3)cc2)S(=O)(=O)c2cccnc2)c1` [Example 9], the concentration giving a half-maximal response (EC50) in test [2] amounted to 10 nM. Also, the IC50 in test [3] was 1.48 nM.
As for `CC(C)(C)OC(=O)c1ccc(CCCN(CCCOc2cc(Cl)cc(Cl)c2)S(C)(=O)=O)s1` [Example 10], in test [2], it took 8.15 nM to reach a half-maximal effect (EC50). In test [3], this compound had an IC50 of 3.22 nM.
For `CC(C)OC(=O)COc1cccc(CN(Cc2ccc(-c3nccs3)cc2)S(=O)(=O)c2cn(C)cn2)c1` [Example 12], in test [2], the response was half-maximal at 12 nM (EC50). Moreover, the half-maximal inhibitory concentration (IC50) in test [3] worked out at 26 nM.
In test [2], `CC(C)OC(=O)CCc1cccc(CN(Cc2ccc(-c3ncccn3)cc2)S(=O)(=O)c2cccnc2)c1` [Example 13] showed an EC50 of 3.1 nM. In test [3], this compound gave an IC50 of under 10 nM.
The like results for `CC(C)OC(=O)CCc1cccc(CN(Cc2ccc(-c3ncccn3)cc2)S(=O)(=O)c2ccccc2)c1` [Example 14] were, in that order, 3.1 nM and under 10 nM.
Take `CC(C)OC(=O)CCc1cccc(CN(Cc2ccc(-c3ncccn3)cc2)S(=O)(=O)c2ccccn2)c1` [Example 15]: in test [2], the EC50 stood at 4.9 nM. Also, in test [3], the IC50 was under 10 nM.
`CC(C)OC(=O)COc1cccc(CN(Cc2ccc(-c3nccs3)cc2)S(=O)(=O)c2cccnc2)c1` [Example 16] registered an EC50 in test [2] of 0.85 nM. In addition, the IC50 in test [3] turned out to be 3 nM.
Consider `CC(C)OC(=O)Cc1cccc(CN(Cc2ccc(-c3ncccn3)cc2)S(=O)(=O)c2cccnc2)c1` [Example 17], for which, in test [2], it took 7.8 nM to reach a half-maximal effect (EC50). This compound returned a concentration for half-maximal inhibition (IC50) in test [3] of 3.9 nM.
Regarding `CC(C)OC(=O)COc1cccc(CN(Cc2ccc(-n3cccn3)cc2)S(=O)(=O)c2ccccn2)c1` [Example 18], the midpoint of the response in test [2], the EC50, lay at 12 nM. The IC50 in test [3] is under 10 nM.
For the compound `CC(C)OC(=O)COc1cccc(CN(Cc2ccc(-c3ccccn3)cc2)S(=O)(=O)c2cccnc2)c1` [Example 19], a half-maximal effect in test [2] (EC50) was put at 4.1 nM. In test [3], the half-maximal inhibitory concentration (IC50) amounted to 7.6 nM.
In test [2], `CC(C)OC(=O)CCc1cccc(CN(Cc2ccc(-n3cccn3)cc2)S(=O)(=O)c2cccnc2)c1` [Example 20] returned an EC50 of 51.5 nM. Also, the IC50 in test [3] was under 10 nM.
Consider `CC(C)OC(=O)Cc1cccc(CN(Cc2ccc(-c3nccs3)cc2)S(=O)(=O)c2cccnc2)c1` [Example 21], for which, in test [2], the EC50 was found to be 2.2 nM. This compound displayed an IC50 in test [3] of 2.2 nM.
Compound `CC(C)OC(=O)CCc1cccc(CN(Cc2ccc(-c3ncccn3)cc2)S(=O)(=O)c2ccc(Cl)cc2)c1` [Example 22] came in with an EC50 in test [2] of 3.3 nM. The IC50 in test [3] stood at 15.7 nM.
In test [2], `CC(C)OC(=O)COc1cccc(CN(Cc2ccc(-c3ncccn3)cc2)S(=O)(=O)c2cccnc2)c1` [Example 23] displayed a concentration for a half-maximal effect (EC50) of 5.4 nM. Also, in test [3], the IC50 is 22 nM.
The compound `CC(C)OC(=O)c1csc(CCCN(CCCc2cccc(Cl)c2)S(C)(=O)=O)n1` [Example 24] returned an EC50 in test [2] of 54 nM. Also, the IC50 in test [3] was 6.64 nM.
As to `CC(C)OC(=O)CCc1cccc(CN(Cc2ccc(-n3cccn3)cc2)S(=O)(=O)c2nccs2)c1` [Example 25], it took 5.9 nM to reach a half-maximal effect in test [2] (EC50). Also, in test [3], the IC50 is under 10 nM.
The matching figures for `CC(C)OC(=O)CCc1cccc(CN(Cc2ccc(-c3ncccn3)cc2)S(=O)(=O)c2nccs2)c1` [Example 26]: 6.4 nM and under 10 nM.
With `O=C(O)COc1cccc(CN(Cc2ccc(-n3cccn3)cc2)S(=O)(=O)c2cccnc2)c1` [drawing 52], in test [1] (setting [5]), the “ΔΔEmax (mm Hg)” value is −7.0 mm Hg. In test [1] (setting [7]), the “ΔΔEmax (%)” value is −21%. Moreover, the “Tmax” value in test [1] (setting [6]) turned out to be 4 h.
With `O=C(O)COc1cccc(CN(Cc2ccc(-n3cccn3)cc2)S(=O)(=O)c2cccnc2)c1` [drawing 60], the “ΔΔEmax (mm Hg)” value in test [1] (setting [5]) is listed as −2.6 mm Hg. The “ΔΔEmax (%)” value in test [1] (setting [7]) is −6%. For the same compound, the “Tmax” value in test [1] (setting [6]) was determined as 4 h.
Take `CC(C)OC(=O)c1ccc(CCCN(CCCOc2cc(Cl)cc(Cl)c2)S(C)(=O)=O)s1` [drawing 62]: the “ΔΔEmax (%)” value in test [1] (isopropylesters, OHT primates, OHT eye) was “ns”. Further, the “ΔΔEmax (mmHg)” value in test [1] (isopropylesters, OHT primates, OHT eye, 0.1 mg/ml topical) is on record as “ns”. In test [1] (setting [8]), the “Tmax (h)” value is “ns”.
